The record followed here is patent US20100120798A1, “SUBSTITUTED PIPERIDINES CONTAINING A HETEROARYLAMIDE OR HETEROARYLPHENYL MOIETY” (ASTEX THERAPEUTICS LIMITED, priority 2006, published 2010).

Assay [1] has as its target hERG K+ ion channel (Homo sapiens, UniProt Q12809). Kind of assay: hERG activity. The following applies: assay of Bridgland-Taylor et al.; read-out: IC50 against hERG K+ ion channel. It is filed as cell-based. An excerpt:
The activity of compounds of the invention against the hERG K^+ ion channel can be determined using the assay described in the article by M. H. Bridgland-Taylor et al., Journal of Pharmcaological and Toxicological Methods, 54 (2006), 189-199.
(In general: hERG is a cardiac potassium channel; its block is linked to QT prolongation.)

Assay [2] is described as follows: In vitro MDA-MB-468 human breast adenocarcinoma GSK-3 phosphorylation assay. It is filed as cell-based. The following applies: mean IC50, MDA-MB-468 cells, 2 hours with compound, phospho-GSK-3β. From the text: This assay determines the ability of test compounds to inhibit phosphorylation of Serine-9 residue in Glycogen Synthase Kinase-3beta (GSK-3β) as a surrogate marker of cellular PKB (Akt) activity, as assessed using Acumen Explorer Fluorescent Plate-Reader technology. A MDA-MB-468 human breast adenocarcinoma cell line (LGC Promochem, Teddington, Middlesex, UK, Catalogue No. HTB-132) was routinely maintained in Dulbecco's modified Eagle's growth medium (DMEM; Invitrogen Limited, Paisley, UK Catalogue No. 11966-025) containing 10% heat-inactivated foetal calf serum (FCS; Sigma, Poole, Dorset, UK, Catalogue No. F0392) and 1% L-glutamine (Gibco, Catalogue No. 25030-024) at 37° C. with 5% CO2 up to a confluency of 70-90%.
For the phosphorylation assay, the cells were detached from the culture flask using Trypsin-EDTA (Invitrogen Limited, Catalogue No. 25300-062) and seeded into the wells of a black transparent-bottom Corning Costar Polystyrene 96 well plate (Fisher Scientific UK, Loughborough, Leicestershire, UK; Catalogue No. 3904 and DPS-130-020K) at a density of 5000 cells per well in 100 μl of complete growth media. The cells were incubated overnight at 37° C. with 5% CO2 to allow them to adhere.
On day 2, the cells were treated with test compounds and incubated for 2 hours at 37° C. with 5% CO2. Test compounds were prepared as 10 mM stock solutions in DMSO and dosed directly to required concentration into test wells using non-contact (acoustic dispensing of multiple 2.5 nl droplets directly into assay wells) ECHO dosing technology (Labcyte Inc. Sunnyvale, Calif., USA). Each plate contained control wells without test compound.
20 μl of fixing buffer (Phosphate Buffered Saline (PBS) containing 10% formaldehyde; Sigma; Catalogue No. F1635) was then added to each well to give a final well concentration 1.6%. Plates were then incubated for 30 minutes at room temperature prior to the fixative being removed. Each well was washed once with 250 μl of PBS and then 50 μl PBS added to each well. PBS was then aspirated and cells permeabilised and blocked by incubating each well with 50 μl of permeabilisation/blocking buffer (PBS containing 0.5% Tween 20 (Sigma; Catalogue No. P5927) and 5% Marvel Milk Powder (Andrews Pharmacy Ltd, Macclesfield, Cheshire, UK; Catalogue No. APC100199)) for 1 hour at room temperature prior to staining.
Following removal of Perm/Block buffer, 50 μl of primary anti-phospho-GSK-3β antibody (Cell Signalling Technology (New England Biolabs (Uk) Ltd.), Hitchin, Hertfordshire, UK; Catalogue No. 9336 diluted 1:400 in Blocking buffer (PBS containing 5% Marvel and 0.05% Tween/Polysorbate 20) was added to each well and incubated overnight at 4° C.
Each well was washed three times in 250 μl of wash buffer (PBS containing 0.05% polysorbate 20), and cells incubated for 1 hour at room temperature with 50 μl of secondary fluorescently-labelled anti-rabbit Alexa Fluor 488 antibody (Molecular Probes, Invitrogen Limited, Catalogue No. A11008) diluted 1:750 in blocking buffer. Plates were washed three times in 250 μl of wash buffer and stored containing 50 μl of PBS at 4° C. until required.
Plates were analysed using an Acumen Explorer Plate-reader to quantify level of fluorescent signal that represents quantity of phosphorylated-GSK-3β.
IC50 calculation—IC50 is the concentration of compound required to give 50% effect over the range of activity affected by the compound, between maximum (no compound) and minimum (excess level of compound) response control data. IC50 values were determined by fitting background corrected, dose response assay data to a 4 parameter logistic curve fit equation model with the minimum response set to zero. This was done using an in-house developed algorithm within the Origin graphing software package (OriginLab Corporation, Northampton, Mass., USA). […]

hERG K+ ion channel, sequence (Q12809 whole entry): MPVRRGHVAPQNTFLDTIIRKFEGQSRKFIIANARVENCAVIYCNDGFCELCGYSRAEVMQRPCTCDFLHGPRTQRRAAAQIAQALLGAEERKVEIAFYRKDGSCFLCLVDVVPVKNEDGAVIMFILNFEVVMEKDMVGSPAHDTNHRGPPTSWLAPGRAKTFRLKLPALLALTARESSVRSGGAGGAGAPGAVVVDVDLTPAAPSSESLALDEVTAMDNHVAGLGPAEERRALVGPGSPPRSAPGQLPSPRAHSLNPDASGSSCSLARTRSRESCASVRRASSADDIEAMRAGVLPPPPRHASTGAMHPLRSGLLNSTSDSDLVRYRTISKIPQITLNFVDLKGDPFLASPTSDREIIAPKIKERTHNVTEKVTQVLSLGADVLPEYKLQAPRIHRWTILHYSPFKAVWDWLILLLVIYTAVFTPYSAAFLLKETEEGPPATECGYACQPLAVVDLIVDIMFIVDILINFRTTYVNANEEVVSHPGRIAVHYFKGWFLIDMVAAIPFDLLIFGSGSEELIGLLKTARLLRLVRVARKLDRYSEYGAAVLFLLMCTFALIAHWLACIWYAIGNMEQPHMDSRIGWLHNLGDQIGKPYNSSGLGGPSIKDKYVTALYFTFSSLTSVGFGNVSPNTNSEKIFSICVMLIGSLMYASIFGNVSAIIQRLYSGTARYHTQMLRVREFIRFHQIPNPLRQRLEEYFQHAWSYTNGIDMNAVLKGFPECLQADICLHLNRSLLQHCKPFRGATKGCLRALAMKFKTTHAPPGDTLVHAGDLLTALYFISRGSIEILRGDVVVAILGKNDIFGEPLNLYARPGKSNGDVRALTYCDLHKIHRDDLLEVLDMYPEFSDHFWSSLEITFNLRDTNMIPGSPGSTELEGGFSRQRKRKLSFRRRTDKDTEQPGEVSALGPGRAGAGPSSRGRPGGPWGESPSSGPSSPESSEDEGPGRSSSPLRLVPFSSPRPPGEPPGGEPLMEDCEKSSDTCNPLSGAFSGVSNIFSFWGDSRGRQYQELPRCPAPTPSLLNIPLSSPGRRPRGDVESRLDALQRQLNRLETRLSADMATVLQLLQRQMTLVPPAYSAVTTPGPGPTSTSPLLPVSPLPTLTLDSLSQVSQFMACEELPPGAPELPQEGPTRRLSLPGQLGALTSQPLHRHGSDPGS

As a reminder, the IC50 is the concentration needed to halve the response being measured. Take `NC1(C(=O)NCc2ccc(Cl)nc2)CCN(c2ncnc3[nH]ccc23)CC1` [Example 4, 4-Amino-1-(7H-pyrrolo[2,3-d]pyrimidin-4-yl)-piperidine-4-carboxylic acid (6-chloro-pyridin-3-ylmethyl)amide]: the IC50 was greater than 32000 nM in assay [1] and 880 nM in assay [2].
For the molecule `Cn1cc(-c2cccc(C3(CN)CCN(c4ncnc5[nH]cnc45)CC3)c2)cn1` [Example 6, C-[4-[3-(1-Methyl-1H-pyrazol-4-yl)-phenyl]-1-(9H-purin-6-yl)-piperidin-4-yl]-methylamine], the IC50 in assay [1] is greater than 32000 nM; in assay [2], 31 nM.
Regarding `NCC1(C(=O)NCc2ccc(Cl)nc2)CCN(c2ncnc3[nH]ccc23)CC1` [Example 1, 4-Aminomethyl-1-(7H-pyrrolo[2,3-d]pyrimidin-4-yl)-piperidine-4-carboxylic acid (6-chloro-pyridin-3-ylmethyl)-amide], the results for the IC50 in assay [1] and in assay [2] were greater than 32000 nM and 59 nM, respectively.
Take `NCC1(C(=O)NCc2cc(Br)no2)CCN(c2ncnc3[nH]ccc23)CC1` [Example 24, 4-(Aminomethyl)-N-((3-bromoisoxazol-5-yl)methyl)-1-(7H-pyrrolo[2,3-d]pyrimidin-4-yl)piperidine-4-carboxamide]: the IC50 in assay [2] is 8.6 nM.
